Assay results reported in patent US9221834B2 (Merck Sharp & Dohme Corp., priority 2010, dated 2015).

molecular target: T1, recombinant CETP (rCETP) (Homo sapiens, UniProt P11597); experiment: RTA assay using recombinant CETP (2% RTA); type: biochemical; settings: RTA assay in 2% human serum; read-out: IC50
T1 sequence (P11597 18-493): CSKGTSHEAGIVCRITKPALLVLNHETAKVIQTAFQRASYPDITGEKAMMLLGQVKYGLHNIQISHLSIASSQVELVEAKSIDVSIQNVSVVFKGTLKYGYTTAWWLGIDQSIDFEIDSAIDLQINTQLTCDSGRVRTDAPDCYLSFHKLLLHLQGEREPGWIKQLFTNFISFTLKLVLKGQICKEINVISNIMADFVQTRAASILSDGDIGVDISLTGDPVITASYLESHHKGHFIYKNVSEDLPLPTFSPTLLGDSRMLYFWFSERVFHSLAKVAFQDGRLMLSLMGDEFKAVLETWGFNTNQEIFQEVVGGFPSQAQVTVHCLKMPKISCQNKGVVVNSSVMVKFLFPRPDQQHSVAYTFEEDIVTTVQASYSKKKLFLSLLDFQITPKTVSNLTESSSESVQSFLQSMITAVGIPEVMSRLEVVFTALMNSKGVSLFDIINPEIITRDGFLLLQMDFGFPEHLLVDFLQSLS
Method: In Vitro Radioactive Assays of CETP-Catalyzed CE and TG Transfer (RTA Assay)
Reagents and sources are: [3H] cholesteryl oleate (GE #TRK.886), [3H]
Both assays measure the transfer of [3H] cholesteryl oleate or [3H]triolein from exogenous LDL to HDL.
After a brief vortex, the solution is sonicated until clear and mixed with 20 mL of fresh human serum. The mixture is incubated overnight at 37° C. […] Once isolated the particles are dialyzed 3× in CETP buffer (50 mM Tris, pH 7.4, 100 mM NaCl, 1 mM EDTA). Human HDL is purchased from Intracel and used as the acceptor particles.
Transfer assays are performed in a 96-well v-bottom polypropylene plate. […] 1 μL of each test compound diluted in DMSO is added to 47 μL of assay cocktail per well and incubated at 37° C. for 1 hour. To initiate the transfer reaction, 2 μL radiolabeled LDL is added. After an additional 60 min of incubation at 37° C., the transfer action is terminated by precipitation of LDL with an equal volume of 20% W/V PEG 8000. The plates are centrifuged at 2000 rpm for 30 minutes at 4° C. A 40 μL aliquot of the HDL-containing supernatant is transferred to a Packard Optiplate with 200 μL of MicroScint 20. After mixing, plates are counted by liquid scintillation. Counts present in the supernatant for blanks (wells containing only HDL acceptor, CETP buffer and DMSO) are subtracted from those containing test compounds and used to correct for non-specific transfer.
Comparison of the counts of samples with inhibitors to an uninhibited (DMSO only) positive control yield a percent inhibition. A plot of percent inhibition vs. log of inhibitor concentration, fit to a Sigmoidal 4 parameter equation is used to calculate IC50.

Question: How did the IC50 turn out when `CCOC(=O)[C@@H]1CC1c1ccc(OC)c(-c2cnc(N3CCC3)nc2CN2C(=O)O[C@H](c3cc(C(F)(F)F)cc(C(F)(F)F)c3)[C@@H]2C)c1` (stereo partly shown) [Example 124] was run?
Answer: 33 nM

Question: `COc1ccc(-c2ccc(C(=O)O)cc2C)cc1-c1cnc(N2CC(F)(F)C2)nc1CN1C(=O)O[C@H](c2cc(C(F)(F)F)cc(C(F)(F)F)c2)[C@@H]1C` [Example 160] was tested. Which IC50 did it give?
Answer: 9 nM

Question: `C[C@H]1[C@@H](c2cc(F)cc(C(F)(F)F)c2)OC(=O)N1Cc1nc(N2CC(F)(F)C2)ncc1-c1cc([C@H]2CC[C@H](C(=O)O)CC2)ccc1Cl` [Example 291] was tested. Which IC50 did it give?
Answer: 49 nM

Question: `COc1c(F)cc(-c2ccc(C(=O)O)cc2C)cc1-c1c(C)cc(N2CCC2)nc1CN1C(=O)O[C@H](c2cc(C(F)(F)F)cc(C(F)(F)F)c2)[C@@H]1C` [Example 287] was tested. Which IC50 did it give?
Answer: 3 nM

Question: With `CCc1ccc(-c2ccc(C(=O)O)cc2C)cc1-c1cnc(N2CC(F)(F)C2)nc1CN1C(=O)O[C@H](c2cc(C(F)(F)F)cc(C(F)(F)F)c2)[C@@H]1C` [Example 162] as the compound, how does the IC50 read?
Answer: 6 nM

Question: Which IC50 does the source give for `COc1cc(F)c(CCC(=O)O)cc1-c1c(C)cc(N2CCC2)nc1CN1C(=O)O[C@H](c2cc(C(F)(F)F)cc(C(F)(F)F)c2)[C@@H]1C` [Example 69] here?
Answer: 5 nM

Question: For `COc1ccc([C@H]2CC[C@H](C(=O)OC)CC2)cc1-c1ccc(N2CCC2)nc1CN1C(=O)O[C@H](c2cc(F)cc(F)c2)[C@@H]1C` [Example 19], which IC50 is on record?
Answer: 381 nM

Question: Which IC50 does the source give for `COc1cc2c(cc1-c1ccc(N3CCC3)nc1CN1C(=O)O[C@H](c3cc(C(F)(F)F)cc(C(F)(F)F)c3)[C@@H]1C)C(CC(=O)O)CC2` (stereo partly shown) [Example 78] here?
Answer: 18 nM

Question: With `COC(=O)CCc1ccc(OC)c(-c2c(C)nc(N3CC(F)(F)C3)nc2CN2C(=O)O[C@H](c3cc(C(F)(F)F)cc(C(F)(F)F)c3)[C@@H]2C)c1` [Example 139, Methyl 3-{3-[4-({(4S,5R)-5-[3,5-bis(trifluoromethyl)phenyl]-4-methyl-2-oxo-1,3-oxazolidin-3-yl}methyl)-2-(3,3-difluoroazetidin-1-yl)-6-methylpyrimidin-5-yl]-4-methoxyphenyl}propanoate] as the compound, how does the IC50 read?
Answer: 13 nM

Question: How did the IC50 turn out when `COc1ccc([C@@H]2CC[C@H](C(=O)O)C2)cc1-c1ccc(N2CCC2)nc1CN1C(=O)O[C@H](c2cc(C(F)(F)F)cc(C(F)(F)F)c2)[C@@H]1C` (single isomer, unassigned) [Example 245] was run?
Answer: 9 nM

Question: How did the IC50 turn out when `COc1ccc([C@H]2CC[C@H](C(=O)OC)CC2)cc1-c1cnc(N2CCC2)nc1CN1C(=O)O[C@H](c2cc(C(F)(F)F)cc(C(F)(F)F)c2)[C@@H]1C` [Example 125] was run?
Answer: 60 nM

Question: `COc1ccc(C(C)(C)CC(=O)O)cc1-c1cnc(N2CCC2)nc1CN1C(=O)O[C@H](c2cc(C(F)(F)F)cc(C(F)(F)F)c2)[C@@H]1C` [Example 175] was tested. Which IC50 did it give?
Answer: 72 nM

Question: For `COc1cc(F)c(-c2ccc(C(=O)O)cc2C)cc1-c1cnc(N2CC(F)(F)C2)nc1CN1C(=O)O[C@H](c2cc(C(F)(F)F)cc(C(F)(F)F)c2)[C@@H]1C` [Example 161], which IC50 is on record?
Answer: 7 nM

Question: Which IC50 does the source give for `COc1ccc([C@H]2CC[C@H](C(=O)O)CC2)cc1-c1cnc(N2CC(OC)C2)nc1CN1C(=O)O[C@H](c2cc(C(F)(F)F)cc(C(F)(F)F)c2)[C@@H]1C` [Example 186] here?
Answer: 137 nM

Question: `COC(=O)CCc1ccc(OC2CC2)c(-c2ccc(N3CCC3)nc2CN2C(=O)O[C@H](c3cc(C(F)(F)F)cc(C(F)(F)F)c3)[C@@H]2C)c1` [Example 213] was tested. Which IC50 did it give?
Answer: 14 nM

Question: For `COC(=O)c1cc(-c2ccc(OC)c(-c3ccc(N4CCC4)nc3CN3C(=O)O[C@H](c4cc(C(F)(F)F)cc(C(F)(F)F)c4)[C@@H]3C)c2)no1` [Example 28], which IC50 is on record?
Answer: 80 nM

Question: How did the IC50 turn out when `COc1ccc(CC(=O)O)cc1-c1c(C)cc(N2CCC2)nc1CN1C(=O)O[C@H](c2cc(C(F)(F)F)cc(C(F)(F)F)c2)[C@@H]1C` [Example 76] was run?
Answer: 14 nM

Question: `COc1cc(F)c(-c2ccc(C(=O)O)cc2C)cc1-c1ccc(N2CC(F)(F)C2)nc1CN1C(=O)O[C@H](c2cccc(OC(F)(F)F)c2)[C@@H]1C` [Example 296] was tested. Which IC50 did it give?
Answer: 8 nM

Question: With `COc1ccc([C@H]2CC[C@H](C(=O)O)CC2)cc1-c1ccc(N2CCC2)nc1CN1C(=O)O[C@H](c2ccc(F)c(F)c2)[C@@H]1C` [Example 81] as the compound, how does the IC50 read?
Answer: 161 nM

Question: How did the IC50 turn out when `COc1ccc(C2C[C@@H]2C(=O)O)cc1-c1cnc(N2CC(F)(F)C2)nc1CN1C(=O)O[C@H](c2cc(C(F)(F)F)cc(C(F)(F)F)c2)[C@@H]1C` (stereo partly shown) [Example 163] was run?
Answer: 14 nM

Question: Which IC50 does the source give for `Cc1cc(C(=O)O)ccc1-c1cc(-c2cnc(N3CC(F)(F)C3)nc2CN2C(=O)O[C@H](c3cc(C(F)(F)F)cc(C(F)(F)F)c3)[C@@H]2C)ccc1F` [Example 184, 5′-[4-({(4S,5R)-5-[3,5-bis(trifluoromethyl)phenyl]-4-methyl-2-oxo-1,3-oxazolidin-3-yl}methyl)-2-(3,3-difluoroazetidin-1-yl)pyrimidin-5-yl]-2′-fluoro-2-methylbiphenyl-4-carboxylic acid] here?
Answer: 12 nM

Question: For `CCOC(=O)CC1CCc2cc(OC)c(-c3ccc(N4CCC4)nc3CN3C(=O)O[C@H](c4cc(C(F)(F)F)cc(C(F)(F)F)c4)[C@@H]3C)cc21` (stereo partly shown) [Example 6], which IC50 is on record?
Answer: 7 nM

Question: How did the IC50 turn out when `COc1cc(F)c([C@H]2C[C@@H](C(=O)O)C2)cc1-c1ccc(N2CCC2)nc1CN1C(=O)O[C@H](c2cc(C(F)(F)F)cc(C(F)(F)F)c2)[C@@H]1C` [Example 103] was run?
Answer: 31 nM

Question: Which IC50 does the source give for `CCc1ccc([C@@H]2C[C@H]2C(=O)O)cc1-c1ccc(N2CCC2)nc1CN1C(=O)O[C@H](c2cc(C(F)(F)F)cc(C(F)(F)F)c2)[C@@H]1C` [Example 88] here?
Answer: 9 nM

Question: How did the IC50 turn out when `COc1ccc(C(C)(C)CC(=O)O)cc1-c1ccc(N2CCC2)nc1CN1C(=O)O[C@H](c2cc(C)cc(C)c2)[C@@H]1C` [Example 226] was run?
Answer: 110 nM

Question: `COc1ccc(CCC(=O)O)cc1-c1cnc(N2CC(F)(F)C2)nc1CN1C(=O)O[C@H](c2cc(C(F)(F)F)cc(C(F)(F)F)c2)[C@@H]1C` [Example 174] was tested. Which IC50 did it give?
Answer: 18 nM

Question: Which IC50 does the source give for `COc1ccc(-c2csc(C(=O)O)c2C)cc1-c1ccc(N2CCC2)nc1CN1C(=O)O[C@H](c2cc(C(F)(F)F)cc(C(F)(F)F)c2)[C@@H]1C` [Example 108] here?
Answer: 5 nM

Question: How did the IC50 turn out when `COc1ccc(-c2c(C)cc(C(=O)O)n2C)cc1-c1ccc(N2CCC2)nc1CN1C(=O)O[C@H](c2cc(C(F)(F)F)cc(C(F)(F)F)c2)[C@@H]1C` [Example 119] was run?
Answer: 5 nM

Question: `COc1cc(F)c(-c2cnc(C(=O)O)cc2C)cc1-c1cnc(N2CC(F)(F)C2)nc1CN1C(=O)O[C@H](c2cc(C(F)(F)F)cc(C(F)(F)F)c2)[C@@H]1C` [Example 183] was tested. Which IC50 did it give?
Answer: 14 nM

Question: `COc1ccc(C2C[C@H]2C(=O)O)cc1-c1cnc(N2CCC2)nc1CN1C(=O)O[C@H](c2cc(C(F)(F)F)cc(C(F)(F)F)c2)[C@@H]1C` (stereo partly shown) [Example 153] was tested. Which IC50 did it give?
Answer: 53 nM

Question: How did the IC50 turn out when `COc1ccc([C@H]2CC[C@H](C(=O)O)CC2)cc1-c1cnc(N2CC(F)C2)nc1CN1C(=O)O[C@H](c2cc(C(F)(F)F)cc(C(F)(F)F)c2)[C@@H]1C` [Example 185] was run?
Answer: 12 nM

Question: For `COc1ccc(-c2ccc(C(=O)O)s2)cc1-c1ccc(N2CCC2)nc1CN1C(=O)O[C@H](c2cc(C(F)(F)F)cc(C(F)(F)F)c2)[C@@H]1C` [Example 105], which IC50 is on record?
Answer: 51 nM

Question: `COc1ccc(CCC(=O)O)cc1-c1c(CN2C(=O)O[C@H](c3cc(C(F)(F)F)cc(C(F)(F)F)c3)[C@@H]2C)nc(N2CCC2)c(Br)c1C` [Example 70] was tested. Which IC50 did it give?
Answer: 4 nM

Question: How did the IC50 turn out when `COc1ccc(-c2ccc(C(=O)O)o2)cc1-c1ccc(N2CCC2)nc1CN1C(=O)O[C@H](c2cc(C(F)(F)F)cc(C(F)(F)F)c2)[C@@H]1C` [Example 112] was run?
Answer: 184 nM

Question: For `CCOC(=O)[C@@H]1CC1c1ccc(OC)c(-c2cnc(N3CC(F)(F)C3)nc2CN2C(=O)O[C@H](c3cc(C(F)(F)F)cc(C(F)(F)F)c3)[C@@H]2C)c1` (stereo partly shown) [Example 129], which IC50 is on record?
Answer: 18 nM

Question: Which IC50 does the source give for `COc1ccc([C@H]2C[C@H](C(=O)O)C2)cc1-c1ccc(N2CCC2)nc1CN1C(=O)O[C@H](c2cc(C(F)(F)F)cc(C(F)(F)F)c2)[C@@H]1C` [Example 90] here?
Answer: 6 nM

Question: For `COc1ccc(Cl)cc1-c1ccc(N2CCC2)nc1CN1C(=O)O[C@H](c2cc(C(F)(F)F)cc(C(F)(F)F)c2)[C@@H]1C` [Example 27, (4S,5R)-3-{[6-azetidin-1-yl-3-(5-chloro-2-methoxyphenyl)pyridin-2-yl]methyl}-5-[3,5-bis(trifluoromethyl)phenyl]-4-methyl-1,3-oxazolidin-2-one], which IC50 is on record?
Answer: 3 nM
